# Assay results taken from US8058395B2, “Chimeric protein comprising a green fluorescent ptotein fused to a transcription factor” (The United States of America as represented by the …, priority 1995, dated 2011).
# How the values were obtained:
# [1] = test system: GR; conditions: cited from earlier work
# [2] = test system: GFP-ER (human estrogen receptor); assay: Ligand effect on nuclear localization of GFP-ER in MCF7 cells; type: cell-based; conditions: GFP-ER already partially activated by medium
# Description: GFP-fusion plasmids of the invention are tested for expression and subcellular localization by transfection into several mammalian cells. For example, GFP-GR plasmids were analyzed in C127 (mouse) cells, HeLa (human cervical cancer) cells, and MCF7 (human breast adenocarcinoma) cells (ATCC accession number HTB22). GFP-ER plasmids were analyzed in 1471.1 cells, C127 (mouse) cells, MCF7 (human breast adenocarcinoma) cells, and MDA-MB-231 (human breast adenocarcinoma) cells (ATCC accession number HTB 26). Localization is observed in the absence of added hormone in either-5% or 10% charcoal-stripped fetal calf serum. Cells having GFP-fusion plasmids are then treated with a selected ligand, and subcellular localization and quantitative observations are made.
# Assay for Ligand Effects: GFP-fusion plasmids of the invention are assayed for effects of a selected ligand on subcellular localization by transfection into selected cells. C127 (mouse) cells, HeLa (human cervical cancer) cells, and MCF7 (human breast adenocarcinoma) cells (ATCC accession number HTB22) were each transfected with GFP-GR plasmids and with GFP-ER plasmids. Localization is first observed in the absence of added hormone in either 5% or 10% charcoal-stripped fetal calf serum. Cells having GFP-fusion plasmids are then treated with a selected ligand, and subcellular localization and quantitative observations are made. […]
smiles,measurement,setting,value
C[C@]12CC[C@@H]3c4ccc(O)cc4CC[C@H]3[C@@H]1CC[C@@H]2O [17-β-estradiol],affinity for GR,[1],no affinity
same,nuclear GFP-ER signal after addition of agonist,[2],further concentration of nuclear signals on nuclear structures
